Laboratory results as given in ChEMBL document CHEMBL4184132, “Chrodrimanins K-N and Related Meroterpenoids from the Fungus Penicillium sp. SCS-KFD09 Isolated from a Marine Worm, Sipunculus nudus” (J Nat Prod, 2017).
Converted amounts (≈) assume the structure as drawn.

Legend:
Staphylococcus aureus = test: Antimicrobial activity against Staphylococcus aureus by XTT assay; assay type: functional
Influenza A virus = test: Antiviral activity against Influenza A virus (A/Puerto Rico/8/34(H1N1)) infected in MDCK cells assessed as protection against virus-induced cytopathogenicity after 48 hrs by crystal-violet staining-based assay; assay type: functional, organism-based; conditions: A/Puerto Rico/8/1934(H1N1)

SMILES | MIC (Staphylococcus aureus) | IC50 (Influenza A virus)
CN[C@@H]1[C@@H](O)[C@@H](O[C@@H]2[C@@H](O)[C@H](O[C@H]3O[C@H](CN)CC[C@H]3N)[C@@H](N)C[C@H]2N)OC[C@]1(C)O.O=S(=O)(O)O | 4 mg/L | 
CC(=O)O[C@@H]1c2c3c(cc(O)c2C(=O)O[C@@H]1C)O[C@@]1(C)[C@@H](O)C[C@H]2C(C)(C)C(=O)CC[C@]2(C)[C@@H]1C3 |  | 58 µM
C[C@@H]1Cc2c3c(c(Cl)c(O)c2C(=O)O1)O[C@@]1(C)[C@@H](O)C[C@H]2C(C)(C)C(=O)C=C[C@]2(C)[C@@H]1C3 |  | 74 µM
C/C(=C\Cc1c(O)cc(O)c2c1C[C@@H](C)OC2=O)CCC(O)[C@@]1(C)CC[C@@H](C(C)(C)O)O1 (stereo partly specified) | 32 mg/L (≈ 71.3 µM) | 
C[C@@H]1Cc2c3c(cc(O)c2C(=O)O1)O[C@@]1(C)CC[C@H]2C(C)(C)C(=O)CC[C@]2(C)[C@@H]1C3 |  | 34 µM
NC(=O)c1ncn([C@@H]2O[C@H](CO)[C@@H](O)[C@H]2O)n1 [RIBAVIRIN] |  | 103 µM
